# In ChEMBL document CHEMBL1137808, “Biologically active proteins from natural product extracts” (J Nat Prod, 2001):
# pEC50: −log10 of the molar value. Bridge positions count the residues as written; N and C are the ends. Peptide text beside a SMILES is read from it.
# Assays:
# [1] = tested on: Human immunodeficiency virus 1; assay: Antiviral activity against HIV1; format: functional, organism-based
# [2] = tested on: Human immunodeficiency virus; assay: Antiviral activity against HIV infected in human MOLT4 cells assessed as inhibition of virus-induced cytopathic effect; format: functional, organism-based; details: Human immunodeficiency virus 1, MOLT-4
SMILES,pEC50 [1],EC50 [2] [ng/mL]
"CC[C@H](C)[C@@H]1NC(=O)[C@H](CCCCN)NC(=O)[C@H](CC(=O)O)NC(=O)[C@H](Cc2cnc[nH]2)NC(=O)[C@H](Cc2ccc(O)cc2)NC(=O)[C@@H]2CSSC[C@@H]3NC(=O)[C@@H]4CCCN4C(=O)[C@H]([C@@H](C)CC)NC(=O)[C@H](Cc4c[nH]c5ccccc45)NC(=O)[C@H](C(C)C)NC(=O)[C@@H]4CSSC[C@H](NC(=O)[C@H](CCCCN)NC(=O)[C@H](CSSC[C@H](NC(=O)[C@@H]5CCCN5C1=O)C(=O)NCC(=O)N[C@@H](CCC(=O)O)C(=O)N[C@@H](CO)C(=O)N4)NC(=O)[C@H](CC(N)=O)NC(=O)[C@H](Cc1ccccc1)NC(=O)[C@H](C(C)C)NC(=O)[C@H](CO)NC(=O)[C@H]([C@@H](C)O)NC(=O)[C@H](CC(C)C)NC3=O)C(=O)N[C@@H](CCC(=O)O)C(=O)N[C@@H](CC(N)=O)C(=O)N[C@@H](CCCCN)C(=O)N[C@@H](C(C)C)C(=O)N2 [CIRCULIN E] (cyclo(CENKVCYHDKIPCGESCVWIPCLTSVFNCK); disulfide 1-17, 6-22, 13-29)",7.40,–
"CC[C@H](C)[C@@H]1NC(=O)[C@H](CO)NC(=O)[C@H]([C@@H](C)O)NC(=O)[C@H](Cc2ccc(O)cc2)NC(=O)[C@@H]2CSSC[C@@H]3NC(=O)[C@H](C(C)C)NC(=O)[C@H](CCCCN)NC(=O)[C@H](CC(N)=O)NC(=O)[C@H](CCC(=O)O)NC(=O)[C@@H]4CSSC[C@H](NC(=O)[C@H](CO)NC(=O)[C@H](CCC(=O)O)NC(=O)CNC(=O)[C@H](CSSC[C@H](NC(=O)[C@H](CC(N)=O)NC(=O)[C@H](Cc5ccccc5)NC1=O)C(=O)N[C@@H](CCCCN)C(=O)N4)NC(=O)[C@@H]1CCCN1C(=O)[C@H]([C@@H](C)CC)NC(=O)[C@H](CCCCN)NC(=O)[C@H](CC(=O)O)NC(=O)[C@H](Cc1cnc[nH]1)NC(=O)[C@H](Cc1ccc(O)cc1)NC3=O)C(=O)N[C@@H](C(C)C)C(=O)N[C@@H](Cc1c[nH]c3ccccc13)C(=O)N[C@@H]([C@@H](C)CC)C(=O)N1CCC[C@H]1C(=O)N2 [CIRCULIN D] (cyclo(CENKVCYHDKIPCGESCVWIPCYTSIFNCK); disulfide 1-17, 6-22, 13-29)",7.40,–
"CC[C@H](C)[C@@H]1NC(=O)[C@@H]2CSSC[C@@H]3NC(=O)[C@H](C(C)C)NC(=O)[C@H](CCCCN)NC(=O)[C@H](CO)NC(=O)[C@H](CCCCN)NC(=O)[C@@H]4CSSC[C@H](NC(=O)[C@H](CO)NC(=O)[C@H](CCC(=O)O)NC(=O)CNC(=O)[C@H](CSSC[C@H](NC(=O)CNC(=O)[C@H](C)NC(=O)[C@H](C(C)C)NC(=O)[C@H](CO)NC(=O)[C@H]([C@@H](C)O)NC1=O)C(=O)N[C@@H](CO)C(=O)N4)NC(=O)[C@@H]1CCCN1C(=O)[C@H]([C@@H](C)CC)NC(=O)CNC(=O)[C@H](CC(N)=O)NC(=O)[C@H](CCCNC(=N)N)NC(=O)[C@H](Cc1ccc(O)cc1)NC3=O)C(=O)N[C@@H](C(C)C)C(=O)N[C@@H](Cc1ccccc1)C(=O)N[C@@H]([C@@H](C)CC)C(=O)N1CCC[C@H]1C(=O)N2 [CIRCULIN C] (cyclo(AGCSCKSKVCYRNGIPCGESCVFIPCITSV); disulfide 3-17, 5-21, 10-26)",7.40,–
"CC[C@H](C)[C@@H]1NC(=O)[C@@H]2CSSC[C@@H]3NC(=O)[C@H](C(C)C)NC(=O)[C@H](CCCCN)NC(=O)[C@H](CC(N)=O)NC(=O)[C@H](CCCCN)NC(=O)[C@@H]4CSSC[C@H](NC(=O)[C@H](CO)NC(=O)[C@H](CCC(=O)O)NC(=O)CNC(=O)[C@H](CSSC[C@H](NC(=O)CNC(=O)[C@H](CC(C)C)NC(=O)[C@H](C)NC(=O)[C@H](C)NC(=O)[C@H](CO)NC1=O)C(=O)N[C@@H](CO)C(=O)N4)NC(=O)[C@@H]1CCCN1C(=O)[C@H]([C@@H](C)CC)NC(=O)CNC(=O)[C@H](CC(N)=O)NC(=O)[C@H](CCCNC(=N)N)NC(=O)[C@H](Cc1ccc(O)cc1)NC3=O)C(=O)N[C@@H](C(C)C)C(=O)N[C@@H](Cc1c[nH]c3ccccc13)C(=O)N[C@@H]([C@@H](C)CC)C(=O)N1CCC[C@H]1C(=O)N2 [CIRCULIN A] (cyclo(AALGCSCKNKVCYRNGIPCGESCVWIPCIS); disulfide 5-19, 7-23, 12-28)",7.40,–
"CC(C)[C@@H]1NC(=O)[C@H](CCCNC(=N)N)NC(=O)[C@H](Cc2ccccc2)NC(=O)[C@@H](NC(=O)[C@H](Cc2c[nH]c3ccccc23)NC(=O)[C@H](CCCNC(=N)N)NC(=O)[C@@H](N)CCCNC(=N)N)CSSC[C@@H]2NC(=O)[C@H](Cc3ccccc3)NC(=O)CNC(=O)[C@H](CCCCN)NC(=O)[C@H](Cc3ccc(O)cc3)NC(=O)[C@H](CSSC[C@@H](C(=O)N[C@@H](CCCNC(=N)N)C(N)=O)NC(=O)[C@H](CCCCN)NC(=O)[C@H](CCCNC(=N)N)NC(=O)[C@H](Cc3ccc(O)cc3)NC2=O)NC1=O [POLYPHEMUSIN II] (H-RRWCFRVCYKGFCYRKCR-NH2; disulfide 4-13, 8-17)",–,8
"CC[C@H](C)[C@@H]1NC(=O)[C@H](C)NC(=O)[C@H](C)NC(=O)[C@H](CO)NC(=O)[C@H]([C@@H](C)CC)NC(=O)[C@@H]2CSSC[C@@H]3NC(=O)[C@H](C(C)C)NC(=O)[C@H](CCCCN)NC(=O)[C@H](CC(N)=O)NC(=O)[C@H](CCCCN)NC(=O)[C@@H]4CSSC[C@H](NC(=O)[C@H](CO)NC(=O)[C@H](CCC(=O)O)NC(=O)CNC(=O)[C@H](CSSC[C@H](NC(=O)CNC1=O)C(=O)N[C@@H](CO)C(=O)N4)NC(=O)[C@@H]1CCCN1C(=O)[C@H]([C@@H](C)CC)NC(=O)[C@H](C)NC(=O)[C@H](CCCNC(=N)N)NC(=O)[C@H](Cc1ccc(O)cc1)NC3=O)C(=O)N[C@@H](C(C)C)C(=O)N[C@@H](Cc1c[nH]c3ccccc13)C(=O)N[C@@H]([C@@H](C)CC)C(=O)N1CCC[C@H]1C(=O)N2 [CIRCULIN F] (cyclo(AAIGCSCKNKVCYRAIPCGESCVWIPCIS); disulfide 5-18, 7-22, 12-27)",7.40,–
"CC[C@H](C)[C@@H]1NC(=O)[C@@H]2CSSC[C@@H]3NC(=O)[C@H](C(C)C)NC(=O)[C@H](CCCCN)NC(=O)[C@H](CC(N)=O)NC(=O)[C@H](CCCCN)NC(=O)[C@@H]4CSSC[C@H](NC(=O)[C@H](CO)NC(=O)[C@H](CCC(=O)O)NC(=O)CNC(=O)[C@H](CSSC[C@H](NC(=O)CNC(=O)[C@H](CC(C)C)NC(=O)[C@H](CC(C)C)NC(=O)[C@H]([C@@H](C)O)NC(=O)[C@H](CO)NC1=O)C(=O)N[C@@H](CO)C(=O)N4)NC(=O)[C@@H]1CCCN1C(=O)[C@H]([C@@H](C)CC)NC(=O)[C@H](C(C)C)NC(=O)CNC(=O)[C@H](CC(N)=O)NC(=O)[C@H](CCCNC(=N)N)NC(=O)[C@H](Cc1ccc(O)cc1)NC3=O)C(=O)N[C@@H](C(C)C)C(=O)N[C@@H](Cc1ccccc1)C(=O)N[C@@H]([C@@H](C)CC)C(=O)N1CCC[C@H]1C(=O)N2 [CIRCULIN B] (cyclo(CGESCVFIPCISTLLGCSCKNKVCYRNGVIP); disulfide 1-17, 5-19, 10-24)",7.40,–
